Experimental data taken from patent US8524755B2 (priority 2009, dated 2013).

Experiments:
[1] = molecular target: T1, Cholecystokinin CCK1 (CCKA) (h) (Homo sapiens, UniProt P32238); experiment: Binding CCK1 (CCKA) (h) (ag); conditions: read-out: % Inhibition of Control Specific Binding @ 10 μM
T1 construct: expressed in transfected cells; host or cells: CHO cells
T1 sequence (P32238 1-428): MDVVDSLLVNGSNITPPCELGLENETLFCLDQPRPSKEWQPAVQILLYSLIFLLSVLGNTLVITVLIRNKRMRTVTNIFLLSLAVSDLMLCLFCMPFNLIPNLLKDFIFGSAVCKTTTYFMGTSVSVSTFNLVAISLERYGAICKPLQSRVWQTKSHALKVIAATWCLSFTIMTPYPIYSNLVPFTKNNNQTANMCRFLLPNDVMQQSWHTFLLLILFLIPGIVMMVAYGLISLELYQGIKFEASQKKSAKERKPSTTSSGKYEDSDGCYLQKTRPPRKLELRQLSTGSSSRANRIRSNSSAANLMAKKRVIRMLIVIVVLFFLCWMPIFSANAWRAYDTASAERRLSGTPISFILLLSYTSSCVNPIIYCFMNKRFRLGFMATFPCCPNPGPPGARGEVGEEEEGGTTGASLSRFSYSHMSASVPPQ
Protocol: (§1) Radioligand binding assay methods utilized to measure the activity of compounds of the invention will be familiar to those skilled in the art. In each assay case, the assay components such as, for example, the cell-type, ligand, reference compound and the like, will be familiar to practitioners of such an assay.
(§2) Analysis and Expression of Results: Compounds of the invention were tested in the biochemical assays and percent inhibition of specific binding was determined. The specific ligand binding to the receptors is defined as the difference between the total binding and the nonspecific binding determined in the presence of an excess of unlabelled ligand. The results are expressed as a percent inhibition of control specific binding (100−((measured specific binding/control specific binding)×100)) obtained in the presence of test compounds.

Adenosine A1 (h) = molecular target: T2, Adenosine A1 (h) (Homo sapiens, UniProt P30542); experiment: Binding A1 (h) (aa); conditions: read-out: % Inhibition of Control Specific Binding @ 10 μM
T2 construct: expressed in transfected cells; host or cells: CHO cells
T2 sequence (P30542 1-326): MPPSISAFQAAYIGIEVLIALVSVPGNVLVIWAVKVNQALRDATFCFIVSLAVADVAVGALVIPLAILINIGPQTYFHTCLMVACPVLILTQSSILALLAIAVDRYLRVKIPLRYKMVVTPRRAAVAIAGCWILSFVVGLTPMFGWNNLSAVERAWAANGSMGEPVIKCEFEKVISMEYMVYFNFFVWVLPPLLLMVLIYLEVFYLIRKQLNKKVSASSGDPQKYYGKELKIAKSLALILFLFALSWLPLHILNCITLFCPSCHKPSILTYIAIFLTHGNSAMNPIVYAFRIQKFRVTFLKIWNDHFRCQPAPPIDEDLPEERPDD
Protocol: as §1, §2

NOP (ORL1) (h) = molecular target: T3, NOP (ORL1) (h) (Homo sapiens, UniProt P41146); experiment: Binding NOP (ORL1) (h) (ag); conditions: read-out: % Inhibition of Control Specific Binding @ 10 μM
T3 construct: expressed in transfected cells; host or cells: HEK-293 cells
Protocol: as §1, §2

Angiotensin AT1 (h) = molecular target: T4, Angiotensin AT1 (h) (Homo sapiens, UniProt P30556); experiment: Binding AT1 (h) (aa); conditions: read-out: % Inhibition of Control Specific Binding @ 10 μM
T4 construct: expressed in transfected cells; host or cells: HEK-293 cells
T4 sequence (P30556 1-359): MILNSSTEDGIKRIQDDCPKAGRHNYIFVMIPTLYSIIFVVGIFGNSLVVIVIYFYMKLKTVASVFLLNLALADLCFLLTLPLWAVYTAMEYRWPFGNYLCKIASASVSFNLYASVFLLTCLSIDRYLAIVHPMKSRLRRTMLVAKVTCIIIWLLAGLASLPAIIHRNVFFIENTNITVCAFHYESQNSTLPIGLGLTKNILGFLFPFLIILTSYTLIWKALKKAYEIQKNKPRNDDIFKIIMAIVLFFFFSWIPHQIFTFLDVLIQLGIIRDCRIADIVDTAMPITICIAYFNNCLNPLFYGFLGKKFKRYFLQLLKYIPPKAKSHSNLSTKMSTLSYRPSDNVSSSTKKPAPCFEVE
Protocol: as §1, §2

PDE1B (h) = molecular target: T5, PDE1B (h) (Homo sapiens, UniProt Q01064); experiment: Enzyme assay PDE1B (h); assay type: biochemical; conditions: read-out: % Inhibition of Control Values @ 10 μM
T5 construct: host or cells: Sf9 cells
Excerpt: The enzyme assays provided below will be familiar to those skilled in the art.
Analysis and Expression of Results: The results are expressed as a percent of control specific activity ((measured specific activity/control specific activity)×100) obtained in the presence of the test compounds.

σ (ns) = experiment: Binding σ (ns) (ag); design: species or system rat
Protocol: as §1, §2

[2] = molecular target: T6, norepinephrine transporter (h) (Homo sapiens, UniProt P23975); experiment: Binding norepinephrine transporter (h) (aa); conditions: read-out: % Inhibition of Control Specific Binding @ 10 μM
T6 construct: expressed in transfected cells; host or cells: CHO cells
Protocol: as §1, §2

Bradykinin B1 (h) = molecular target: T7, Bradykinin B1 (h) (Homo sapiens, UniProt P46663); experiment: Binding B1 (h) (ag); conditions: read-out: % Inhibition of Control Specific Binding @ 10 μM
T7 construct: expressed in transfected cells; host or cells: CHO cells
T7 sequence (P46663 1-353): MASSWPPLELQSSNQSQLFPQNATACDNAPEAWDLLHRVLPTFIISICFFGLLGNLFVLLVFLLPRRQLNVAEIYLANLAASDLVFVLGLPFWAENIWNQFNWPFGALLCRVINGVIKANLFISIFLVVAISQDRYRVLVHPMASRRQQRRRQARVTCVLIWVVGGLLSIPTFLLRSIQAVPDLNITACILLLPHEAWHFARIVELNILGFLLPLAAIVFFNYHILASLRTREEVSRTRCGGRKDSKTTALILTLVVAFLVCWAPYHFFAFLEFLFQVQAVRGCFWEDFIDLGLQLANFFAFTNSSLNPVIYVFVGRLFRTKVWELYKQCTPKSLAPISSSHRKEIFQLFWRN
Protocol: as §1, §2

T5 sequence (Q01064 whole entry): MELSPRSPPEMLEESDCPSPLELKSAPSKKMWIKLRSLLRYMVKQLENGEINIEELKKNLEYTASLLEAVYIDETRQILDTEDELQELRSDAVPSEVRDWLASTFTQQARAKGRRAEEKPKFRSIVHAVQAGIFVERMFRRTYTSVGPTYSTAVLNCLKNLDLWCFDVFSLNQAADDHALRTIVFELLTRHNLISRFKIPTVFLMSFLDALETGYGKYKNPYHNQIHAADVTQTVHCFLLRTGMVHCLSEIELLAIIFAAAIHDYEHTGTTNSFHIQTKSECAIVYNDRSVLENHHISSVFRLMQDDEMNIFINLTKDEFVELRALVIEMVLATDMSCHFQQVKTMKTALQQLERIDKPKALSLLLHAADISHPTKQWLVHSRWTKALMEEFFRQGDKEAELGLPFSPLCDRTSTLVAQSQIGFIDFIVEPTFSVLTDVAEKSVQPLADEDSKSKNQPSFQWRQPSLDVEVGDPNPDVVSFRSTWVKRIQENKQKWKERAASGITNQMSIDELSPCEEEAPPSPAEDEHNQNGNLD
T3 sequence (P41146 whole entry): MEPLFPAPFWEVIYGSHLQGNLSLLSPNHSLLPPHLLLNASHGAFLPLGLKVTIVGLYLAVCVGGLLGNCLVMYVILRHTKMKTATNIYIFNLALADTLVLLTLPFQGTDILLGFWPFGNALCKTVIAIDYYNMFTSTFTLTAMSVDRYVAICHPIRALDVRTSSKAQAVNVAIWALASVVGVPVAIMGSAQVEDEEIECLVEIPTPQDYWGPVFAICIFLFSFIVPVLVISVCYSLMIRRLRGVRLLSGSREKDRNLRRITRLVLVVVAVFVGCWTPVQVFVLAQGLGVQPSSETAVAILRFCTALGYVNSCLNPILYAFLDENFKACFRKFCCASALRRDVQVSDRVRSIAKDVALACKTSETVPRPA
T6 sequence (P23975 whole entry): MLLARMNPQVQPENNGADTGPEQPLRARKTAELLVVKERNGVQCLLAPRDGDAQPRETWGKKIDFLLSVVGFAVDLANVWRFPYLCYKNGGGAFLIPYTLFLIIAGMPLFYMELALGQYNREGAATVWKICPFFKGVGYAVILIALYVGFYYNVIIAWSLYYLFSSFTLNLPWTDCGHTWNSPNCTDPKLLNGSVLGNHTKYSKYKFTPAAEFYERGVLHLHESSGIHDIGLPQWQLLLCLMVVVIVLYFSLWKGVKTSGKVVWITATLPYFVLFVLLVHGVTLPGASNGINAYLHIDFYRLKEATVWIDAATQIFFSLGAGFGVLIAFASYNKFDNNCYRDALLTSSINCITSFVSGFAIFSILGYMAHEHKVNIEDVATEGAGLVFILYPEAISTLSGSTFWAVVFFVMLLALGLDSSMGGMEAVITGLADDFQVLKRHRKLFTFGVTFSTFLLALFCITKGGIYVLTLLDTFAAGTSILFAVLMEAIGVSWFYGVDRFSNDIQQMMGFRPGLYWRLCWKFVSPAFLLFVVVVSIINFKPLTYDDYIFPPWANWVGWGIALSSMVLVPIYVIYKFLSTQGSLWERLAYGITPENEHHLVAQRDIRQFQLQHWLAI

SMILES | inhibition at 10 µM [1] [%] | inhibition at 10 µM (Adenosine A1 (h)) [%] | inhibition at 10 µM (NOP (ORL1) (h)) [%] | inhibition at 10 µM (Angiotensin AT1 (h)) [%] | inhibition at 10 µM (PDE1B (h)) [%] | % Inhibition of Control Specific Binding @ 10 μM (σ (ns)) [%] | inhibition at 10 µM [2] [%] | inhibition at 10 µM (Bradykinin B1 (h)) [%]
CC1(C)C(=O)N(c2ccc(C#N)c(C(F)(F)F)c2)C(=S)N1c1ccc(C(=O)O)c(F)c1 [(MI), 4-(3-(4-cyano-3-(trifluoromethyl)phenyl)-5,5-dimethyl-4-oxo-2-thioxoimidazolidin-1-yl)-2-fluorobenzoic acid] | 47 | 10 | -10 | 11 | 0 | 20 | 56 | 0
CC1(C)C(=O)N(c2ccc(C#N)c(C(F)(F)F)c2)C(=O)N1c1ccc(C(N)=O)c(F)c1 [(MIII), 4-(3-(4-cyano-3-(trifluoromethyl)phenyl)-5,5-dimethyl-2,4-dioxoimidazolidin-1-yl)-2-fluorobenzamide] | -14 | 2 | 0 | 6 | -8 | 34 | 9 | 5
CNC(=O)c1ccc(N2C(=O)N(c3ccc(C#N)c(C(F)(F)F)c3)C(=O)C2(C)C)cc1F [(MIV), 4-(3-(4-cyano-3-(trifluoromethyl)phenyl)-5,5-dimethyl-2,4-dioxoimidazolidin-1-yl)-2-fluoro-N-methylbenzamide] | 25 | 6 | -2 | 0 | -2 | 50 | 20 | 4
CC1(C)C(=O)N(c2ccc(C#N)c(C(F)(F)F)c2)C(=S)N1c1ccc(C(N)=O)c(F)c1 [(MII), 4-(3-(4-Cyano-3-(trifluoromethyl)phenyl)-5,5-dimethyl-4-oxo-2-thioxoimidazolidin-1-yl)-2-fluorobenzamide] | 0 | 9 | -4 | 0 | -11 | 39 | -13 | 6
